Consider four compounds from patent US8809324B2, “Substituted phenyl-oxathiazine derivatives, method for producing them, drugs containing said compounds and the use thereof” (Sanofi, priority 2011, dated 2014).

Structures are written as SMILES. pIC50: −log10 of the molar value.

Chain of human 11β-HSD1 microsome fraction (P28845 whole entry): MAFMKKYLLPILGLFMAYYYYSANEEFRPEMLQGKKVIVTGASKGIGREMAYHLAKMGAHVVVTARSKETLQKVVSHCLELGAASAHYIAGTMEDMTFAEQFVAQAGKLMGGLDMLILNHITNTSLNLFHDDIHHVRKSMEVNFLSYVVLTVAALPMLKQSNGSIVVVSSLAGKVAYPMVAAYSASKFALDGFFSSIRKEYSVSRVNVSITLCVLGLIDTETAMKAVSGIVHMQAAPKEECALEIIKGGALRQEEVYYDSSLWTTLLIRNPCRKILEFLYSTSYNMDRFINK

The test addresses human 11β-HSD1 microsome fraction (Homo sapiens, UniProt P28845). Description: Enzymatic 11Beta-HSD1 test (SPA-based detection). Type of test: biochemical. The note with it: human 11β-HSD1 microsomes, [1,2-3H]-cortisone, NADPH, 37° C. 1 hour. On the procedure: Enzymatic 11Beta-HSD1 Test:
To measure the activity of the compounds, an SPA-based detection method (Solly et al. 2005) was employed. First of all, 20 μl of the human 11β-HSD1 microsome fraction (0.2 μg of protein), prepared in 50 mM HEPES, 0.1% BSA (w/v), were applied to a plate with 384 wells. The test compounds (0.09 μl) were applied to the assay plate in 100% DMSO. The reaction was started by addition of 20 μl of [1,2-^3H]-cortisone (0.1 μCi/[…]) in assay buffer comprising 25 mM HEPES, 100 mM KCl, 5 mM NaCl, 2 mM MgCl2 and 0.25 mM NADPH. The plate was agitated at 37° C. for 1 hour. At the same time, a stop solution comprising 20 mg/ml SPA-PVT beads, 1.6 mg/ml monoclonal cortisol antibody and 0.01 mM SSR110887 (inhibitor from the Biovitrium patent) in 50 mM HEPES, 1 M NaCl and 1 M KCl was stirred at room temperature. To stop the reaction, 25 μl of the stop solution were added to each well. The plate was agitated gently at room temperature for 1 further hour and then centrifuged at 500 gav for 1 minute, in order that the SPA beads could settle out. The plate was then read in a Wallac-1450-Microbeta unit with a standard SPA program (counting time 1 min/well). The comparative compound was glycyrrhetinic acid.
Protein and radioactive substrate were dispensed with a Biomek FX unit (Beckman Coulter) for handling liquids. The test compounds were added with a Cybi-Well equipped with a 90 nl pin tool (CyBio).
Lit.: Solly S, Mundt S S, Zokian H J, Juy-Fang Ding G, Hermanowski-Vosatka A, Strulovici B and Zheng W. High-throughput screening of 11β-Hydroxysteroid dehydrogenase type 1 in scintillation proximity format. Assay Drug Dev Technol 2005; 3:377-384.
In the case of `CC1(C)OC(NC23CC4CC(CC2C4)C3)=NS(=O)(=O)[C@H]1c1ccc(-c2cccc(C(=O)O)c2)cc1` [Example 1, 4′-[(S)-2-(Hexahydro-2,5-methanopentalen-3a-ylamino)-6,6-dimethyl-4,4-dioxo-5,6-dihydro-4H-4lambda6-[1,4,3]oxathiazin-5-yl]-biphenyl-3-carboxylic acid], the negative-log IC50 (pIC50) – broadly, −log10 of the IC50, conventionally taken in molar units – was 7.85. Compound `CC1(C)OC(NC23CC4CC(CC2C4)C3)=NS(=O)(=O)[C@H]1c1ccc(C2CCN(CCC(F)(F)F)CC2)cc1` [Example 2, ((S)-6,6-Dimethyl-4,4-dioxo-5-{4-[1-(3,3,3-trifluoropropyl)-piperidin-4-yl]phenyl}-5,6-dihydro-4H-4lambda6-[1,4,3]oxathiazin-2-yl)-(hexahydro-2,5-methanopentalen-3a-yl)amine] had a pIC50 of 7.62. For `CC1(C)OC(NC23CC4CC2CC(C(N)=O)(C4)C3)=NS(=O)(=O)[C@@H]1c1ccc(Br)cc1` (stereo partly drawn) [Example 3, 3a-[(R)-5-(4-Bromophenyl)-6,6-dimethyl-4,4-dioxo-5,6-dihydro-4H-4lambda6-[1,4,3]oxathiazin-2-ylamino]hexahydro-2,5-methanopentalene-2-carboxamide], the negative-log IC50 (pIC50) was 7.66. As to `CC1(C)OC(NC23CC4CC2CC(C(N)=O)(C4)C3)=NS(=O)(=O)[C@@H]1c1ccc(-c2ccccc2)cc1` (stereo partly drawn) [Example 4, 3a-((R)-5-Biphenyl-4-yl-6,6-dimethyl-4,4-dioxo-5,6-dihydro-4H-4lambda6-[1,4,3]oxathiazin-2-ylamino)hexahydro-2,5-methane-pentalene-2-carboxamide], the pIC50 was 7.47.
